{"source": "patent US8501241B1", "about": "“Treating cancer with a whole, leech saliva extract” (priority 2012, dated 2013)", "key": {"[1]": {"assay": "Mortality, behaviour and acute toxicity signs in injected diabetic rats", "format": "in vivo, rat (Sprague Dawley)", "details": "insulin 20 units/kg b.w"}, "induced-diabetic rats": {"test_system": "induced-diabetic rats", "assay": "Antihyperglycemic activity: fall in fasting blood glucose in alloxan-induced diabetic rats", "format": "in vivo, rat (Sprague Dawley)"}, "[2]": {"test_system": "Cryptococcus neoformans ATCC90112", "assay": "Kirby-Bauer disc diffusion", "format": "cell-based", "details": "reference antibiotic disc, 100 units/disc", "excerpt": "(§1) Experimental procedures include the following steps: • 1."}, "[3]": {"test_system": "Candida albicans ATCC10231", "assay": "Kirby-Bauer disc diffusion", "format": "cell-based", "details": "reference antibiotic disc, 100 units/disc", "excerpt": "as §1"}}, "data": [{"compound": "insulin: insulin from bovine pancreas (≧27 units/mg)", "values": [{"measurement": "hypoglycemia and mortality", "setting": "[1]", "result": "hypoglycemic condition in all rats leading to the death of one rat"}, {"measurement": "fasting blood glucose (FBG)", "setting": "induced-diabetic rats; after two hours of injection", "result": "sharp significant decrease (p<0.001)"}, {"measurement": "difference between normal rats and treated diabetic rats", "setting": "induced-diabetic rats; at either dose", "result": "No significant difference"}, {"measurement": "fasting blood glucose (FBG)", "setting": "induced-diabetic rats; insulin 10 units/kg b.w, after 8 hours of treatment", "result": "returned to the diabetic state"}]}, {"compound": "C[C@@H]1[C@H](O)[C@@H](C)/C=C/C=C/CC/C=C/C=C/C=C/C=C/C(O[C@H]2O[C@H](C)[C@@H](O)[C@H](N)[C@@H]2O)CC2O[C@](O)(CC(O)C(O)CCC(O)CC(O)CC(O)CC(=O)O[C@H]1C)CC(O)C2C(=O)O", "note": "(stereo partly drawn) [Nystatin, nystatin]", "values": [{"measurement": "Zone of inhibition (mm) C. neoformance", "setting": "[2]", "result": 9, "unit": "mm"}, {"measurement": "Zone of inhibition (mm) C. albicans", "setting": "[3]", "result": 10, "unit": "mm"}]}]}
